The molecules below were run against human dUTPase (Homo sapiens (Human), UniProt P33316) (assay: Human dUTPase inhibitory effect: production of [5-3H]dUMP from [5-3H]dUTP, measured by HPLC with flow scintillation). Details: [5-3H]dUMP production from [5-3H]dUTP, 37° C., 15 minutes.
Format: biochemical
Method in brief: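 E. coli-expressed purified human dUTPase reacted with 1 μM dUTP stock containing [5-3H]dUTP in Tris pH 7.4, MgCl2, 2-mercaptoethanol and albumin, 15 min at 37° C; stopped by 1 min at 100° C. [5-3H]dUMP formed was separated by reversed-phase ion-pair HPLC and quantified by flow scintillation versus water control.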

human dUTPase, sequence (P33316 94-252): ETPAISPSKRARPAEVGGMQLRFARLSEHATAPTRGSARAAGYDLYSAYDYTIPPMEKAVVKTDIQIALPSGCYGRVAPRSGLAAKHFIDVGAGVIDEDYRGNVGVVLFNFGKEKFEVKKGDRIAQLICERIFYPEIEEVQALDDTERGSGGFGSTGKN

Compound	IC50
O=c1ccn(CCCS(=O)(=O)NC(c2ccccc2)c2ccccc2)c(=O)[nH]1 [Example 111, N-benzhydryl-3-(2,4-dioxo-3,4-dihydropyrimidin-1(2H)-yl)propane-1-sulfonamide]	8.27 µM
O=c1ccn(CCCS(=O)(=O)NC(c2ccccc2)c2cccc(OCC3CC3)c2)c(=O)[nH]1 (stereo not shown) [Example 112, N-((3-(cyclopropylmethoxy)phenyl)(phenyl)methyl)-3-(2,4-dioxo-3,4-dihydropyrimidin-1(2H)-yl)propane-1-sulfonamide]	2.23 µM
O=c1ccn(C/C=C/CCS(=O)(=O)NCc2cccc(OCC3CC3)c2)c(=O)[nH]1 [Example 113, (E)-N-(3-(cyclopropylmethoxy)benzyl)-5-(2,4-dioxo-3,4-dihydropyrimidin-1(2H)-yl)pent-3-ene-1-sulfonamide]	0.41 µM
O=c1ccn(CCCS(=O)(=O)N[C@H](c2ccc(F)cc2)c2cccc(OCC3CC3)c2)c(=O)[nH]1 [Example 114, (R)—N-((3-(cyclopropylmethoxy)phenyl)(4-fluorophenyl)methyl)-3-(2,4-dioxo-3,4-dihydropyrimidin-1(2H)-yl)propane-1-sulfonamide]	0.58 µM
CC[C@@H](NS(=O)(=O)CCCn1ccc(=O)[nH]c1=O)c1ccc(F)c(OCC2CC2)c1 [Example 115, (R)—N-(1-(3-(cyclopropylmethoxy)-4-fluorophenyl)propyl)-3-(2,4-dioxo-3,4-dihydropyrimidin-1(2H)-yl)propane-1-sulfonamide]	0.25 µM
O=c1ccn(CCCS(=O)(=O)N[C@H](c2ccc(F)cc2)c2ccc(F)c(OCC3CC3)c2)c(=O)[nH]1 [Example 116, (R)—N-((3-(cyclopropylmethoxy)-4-fluorophenyl)(4-fluorophenyl)methyl)-3-(2,4-dioxo-3,4-dihydropyrimidin-1(2H)-yl)propane-1-sulfonamide]	0.35 µM
CC[C@@H](NS(=O)(=O)CCCn1ccc(=O)[nH]c1=O)c1ccccc1 [Example 118, (R)-3-(2,4-dioxo-3,4-dihydropyrimidin-1(2H)-yl)-N-(1-phenylpropyl)propane-1-sulfonamide]	9.8 µM
O=c1ccn(CC2CCN(S(=O)(=O)NCc3cccc(OCC4CC4)c3)CC2)c(=O)[nH]1 [Example 128, N-(3-(cyclopropylmethoxy)benzyl)-4-((2,4-dioxo-3,4-dihydropyrimidin-1(2H)-yl)methyl)piperidine-1-sulfonamide]	0.27 µM
O=c1ccn(CCCS(=O)(=O)N2CCC[C@@H]2C(O)(c2ccccc2)c2ccccc2)c(=O)[nH]1 [Example 130, (R)-1-(3-(2-(hydroxydiphenylmethyl)pyrrolidin-1-ylsulfonyl)propyl)pyrimidine-2,4(1H, 3H)-dione]	0.48 µM
O=c1ccn(CCCS(=O)(=O)N2CCC[C@@H]2C(O)(c2ccc(F)cc2)c2ccc(F)cc2)c(=O)[nH]1 [Example 131, (R)-1-(3-(2-(bis(4-fluorophenyl)(hydroxy)methyl)pyrrolidin-1-ylsulfonyl)propyl)pyrimidine-2,4(1H, 3H)-dione]	0.4 µM
O=c1ccn(CCCS(=O)(=O)N2CCC[C@@H]2C(O)(c2cccc(F)c2)c2cccc(F)c2)c(=O)[nH]1 [Example 132, (R)-1-(3-(2-(bis(3-fluorophenyl)(hydroxy)methyl)pyrrolidin-1-ylsulfonyl)propyl)pyrimidine-2,4(1H, 3H)-dione]	0.38 µM
CN(CC1(c2ccccc2)CC1)S(=O)(=O)CCCn1ccc(=O)[nH]c1=O [Example 133, 3-(2,4-dioxo-3,4-dihydropyrimidin-1(2H)-yl)-N-methyl-N-((1-phenylcyclopropyl)methyl)propane-1-sulfonamide]	6.56 µM
CN(CCc1cccc(OCC2CC2)c1)S(=O)(=O)CCCn1ccc(=O)[nH]c1=O [Example 134, N-(3-(cyclopropylmethoxy)phenethyl)-3-(2,4-dioxo-3,4-dihydropyrimidin-1(2H)-yl)-N-methylpropane-1-sulfonamide]	4.54 µM
COc1cccc(S(=O)(=O)NC(C)(C)CCCOCn2ccc(=O)[nH]c2=O)c1 [Example 135, N-(5-((2,4-dioxo-3,4-dihydropyrimidin-1(2H)-yl)methoxy)-2-methylpentan-2-yl)-3-methoxybenzenesulfonamide]	1.12 µM
CC(C)(CCCOCn1ccc(=O)[nH]c1=O)NS(=O)(=O)c1ccc(Cl)cc1 [Example 136, 4-chloro-N-(5-((2,4-dioxo-3,4-dihydropyrimidin-1(2H)-yl)methoxy)-2-methylpentan-2-yl)benzenesulfonamide]	3.94 µM
CC(C)(CCCOCn1ccc(=O)[nH]c1=O)NS(=O)(=O)c1ccc(Cl)c(Cl)c1 [Example 137, 3,4-dichloro-N-(5-((2,4-dioxo-3,4-dihydropyrimidin-1(2H)-yl)methoxy)-2-methylpentan-2-yl)benzenesulfonamide]	2.05 µM
CC(C)(CCCOCn1ccc(=O)[nH]c1=O)NS(=O)(=O)c1cc(Cl)c(Cl)s1 [Example 138, 4,5-dichloro-N-(5-((2,4-dioxo-3,4-dihydropyrimidin-1(2H)-yl)methoxy)-2-methylpentan-2-yl)thiophene-2-sulfonamide]	3.89 µM

Compound	IC50
CC(C)(CCCOCn1ccc(=O)[nH]c1=O)NS(=O)(=O)c1cc(Cl)cc(Cl)c1 [Example 139, 3,5-dichloro-N-(5-((2,4-dioxo-3,4-dihydropyrimidin-1(2H)-yl)methoxy)-2-methylpentan-2-yl)benzenesulfonamide]	4.99 µM
CC(C)(CCCOCn1ccc(=O)[nH]c1=O)NS(=O)(=O)c1cccc(Br)c1 [Example 141, 3-bromo-N-(5-((2,4-dioxo-3,4-dihydropyrimidin-1(2H)-yl)methoxy)-2-methylpentan-2-yl)benzenesulfonamide]	4.35 µM
CC(C)(CCCOCn1ccc(=O)[nH]c1=O)NS(=O)(=O)c1ccccc1Cl [Example 142, 2-chloro-N-(5-((2,4-dioxo-3,4-dihydropyrimidin-1(2H)-yl)methoxy)-2-methylpentan-2-yl)benzenesulfonamide]	7.64 µM
CC(C)(CCCOCn1ccc(=O)[nH]c1=O)NS(=O)(=O)c1cccc(OC(F)F)c1 [Example 145, 3-(difluoromethoxy)-N-(5-((2,4-dioxo-3,4-dihydropyrimidin-1(2H)-yl)methoxy)-2-methylpentan-2-yl)benzenesulfonamide]	6.29 µM
CC(C)(CCCOCn1ccc(=O)[nH]c1=O)NS(=O)(=O)c1cccc(OC(=O)c2ccccc2)c1 [Example 146, 3-(N-(5-((2,4-dioxo-3,4-dihydropyrimidin-1(2H)-yl)methoxy)-2-methylpentan-2-yl)sulfamoyl)phenylbenzoate]	8.68 µM
CN(C)c1cccc2c(S(=O)(=O)NC(C)(C)CCCOCn3ccc(=O)[nH]c3=O)cccc12 [Example 147, 5-(dimethylamino)-N-(5-((2,4-dioxo-3,4-dihydropyrimidin-1(2H)-yl)methoxy)-2-methylpentan-2-yl)naphthalene-1-sulfonamide]	9.5 µM
CC(C)(CCCOCn1ccc(=O)[nH]c1=O)NS(=O)(=O)c1cccc(Cl)c1 [Example 148, 3-chloro-N-(5-((2,4-dioxo-3,4-dihydropyrimidin-1(2H)-yl)methoxy)-2-methylpentan-2-yl)benzenesulfonamide]	2.77 µM
CC(C)(CCCOCn1ccc(=O)[nH]c1=O)NS(=O)(=O)c1cc(Br)c(Br)s1 [Example 149, 4,5-dibromo-N-(5-((2,4-dioxo-3,4-dihydropyrimidin-1(2H)-yl)methoxy)-2-methylpentan-2-yl)thiophene-2-sulfonamide]	7.65 µM
CC(C)(CCCOCn1ccc(=O)[nH]c1=O)NS(=O)(=O)c1cccc(F)c1 [Example 150, N-(5-((2,4-dioxo-3,4-dihydropyrimidin-1(2H)-yl)methoxy)-2-methylpentan-2-yl)-3-fluorobenzenesulfonamide]	5.67 µM
Cc1ccccc1S(=O)(=O)NC(C)(C)CCCOCn1ccc(=O)[nH]c1=O [Example 151, N-(5-((2,4-dioxo-3,4-dihydropyrimidin-1(2H)-yl)methoxy)-2-methylpentan-2-yl)-2-methylbenzenesulfonamide]	5.7 µM
Cc1cccc(S(=O)(=O)NC(C)(C)CCCOCn2ccc(=O)[nH]c2=O)c1 [Example 154, N-(5-((2,4-dioxo-3,4-dihydropyrimidin-1(2H)-yl)methoxy)-2-methylpentan-2-yl)-3-methylbenzenesulfonamide]	8.82 µM
CC(C)(CCCOCn1ccc(=O)[nH]c1=O)NS(=O)(=O)c1ccccc1Br [Example 156, 2-bromo-N-(5-((2,4-dioxo-3,4-dihydropyrimidin-1(2H)-yl)methoxy)-2-methylpentan-2-yl)benzenesulfonamide]	8.94 µM
CC(C)(CCCOCn1ccc(=O)[nH]c1=O)NS(=O)(=O)c1ccccc1 [Example 158, N-(5-((2,4-dioxo-3,4-dihydropyrimidin-1(2H)-yl)methoxy)-2-methylpentan-2-yl)benzenesulfonamide]	9.48 µM
CC(C)(CCCOCn1ccc(=O)[nH]c1=O)NS(=O)(=O)c1cccc(OCC2CC2)c1 [Example 159, 3-(cyclopropylmethoxy)-N-(5-((2,4-dioxo-3,4-dihydropyrimidin-1(2H)-yl)methoxy)-2-methylpentan-2-yl)benzenesulfonamide]	0.26 µM
CC(C)(CCCOCn1ccc(=O)[nH]c1=O)NS(=O)(=O)c1cccc(OCC(F)F)c1 [Example 160, 3-(2,2-difluoroethoxy)-N-(5-((2,4-dioxo-3,4-dihydropyrimidin-1(2H)-yl)methoxy)-2-methylpentan-2-yl)benzenesulfonamide]	0.14 µM
CC(C)(CCCOCn1ccc(=O)[nH]c1=O)NS(=O)(=O)c1cccc(OC2CCCC2)c1 [Example 161, 3-(cyclopentyloxy)-N-(5-((2,4-dioxo-3,4-dihydropyrimidin-1(2H)-yl)methoxy)-2-methylpentan-2-yl)benzenesulfonamide]	0.24 µM
C/C=C\c1cccc(S(=O)(=O)NC(C)(C)CCCOCn2ccc(=O)[nH]c2=O)c1 [Example 162, (Z)—N-(5-((2,4-dioxo-3,4-dihydropyrimidin-1(2H)-yl)methoxy)-2-methylpentan-2-yl)-3-(prop-1-enyl)benzenesulfonamide]	3.96 µM

From US8530490B2, “Uracil compound or salt thereof having human deoxyuridine triphosphatase inhibitory activity” (Taiho Pharmaceutical Co., Ltd., priority 2008, dated 2013)
